Experimental data published in PMC11189382, “Structural basis of connexin-36 gap junction channel inhibition” (Cell Discovery, 2024).

Assays:
[1] = biological target: T1, Cx36 (Homo sapiens, UniProt Q9UKL4); assay: ligand binding assay with purified Cx36
T1 construct: gene GJD2; purified in detergent; gap junction channel of docked hexameric hemichannels
T1 sequence (Q9UKL4 1-321): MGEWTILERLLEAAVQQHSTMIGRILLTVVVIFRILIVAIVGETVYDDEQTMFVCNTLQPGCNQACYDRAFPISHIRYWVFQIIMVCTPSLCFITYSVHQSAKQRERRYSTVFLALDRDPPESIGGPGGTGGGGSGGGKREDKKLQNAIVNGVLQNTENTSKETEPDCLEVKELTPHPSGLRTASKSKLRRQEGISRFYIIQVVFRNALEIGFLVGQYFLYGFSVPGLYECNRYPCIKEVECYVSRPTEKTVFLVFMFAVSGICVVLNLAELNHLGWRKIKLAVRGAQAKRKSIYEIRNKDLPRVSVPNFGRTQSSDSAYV

[2] = biological target: T1, Cx36; assay: cryo-EM structure of the complex; type: binding; settings: detergent, pore pocket between TM1 and TM2 at interface of two monomers

Structure (SMILES) | Kd [1] | cryo-EM structure of the complex ([2]; 1 mM racemic drug) | cryo-EM structure of the complex ([2]; 1 mM drug)
OC(c1cc(C(F)(F)F)nc2c(C(F)(F)F)cccc12)C1CCCCN1 (racemic) [mefloquine] | 10.4 ± 1.3 µM | although we used a racemic mixture of the drug, the high-resolution structure captured the S/R-enantiomer | 
C=C[C@H]1CN2CC[C@H]1C[C@@H]2[C@@H](O)c1ccnc2ccc(OC)cc12 [quinidine] | 58 ± 9 µM |  | Cx36–quin, and Cx36–quid feature additional densities, corresponding to six bound drugs per Cx36 hexamer
C=C[C@H]1CN2CC[C@H]1C[C@H]2[C@H](O)c1ccnc2ccc(OC)cc12 [quinine] | 29 ± 5.3 µM |  | Cx36–quin, and Cx36–quid feature additional densities, corresponding to six bound drugs per Cx36 hexamer
